Experimental data: patent US8822697B2, “Paramagnetic polynuclear metal complex having high self-relaxation rate, preparation method thereof, and contrast medium containing same” (Kyungpook National University Industry-Academic Cooperation …, priority 2009, dated 2014)

Key:
[1] = Stability, conditional stability and selectivity constants and pM value for gadolinium; assay type: physicochemical; conditions: for log K′sel: conditional stability constant (K′Sel); for log K′sel / {log KGdL(PH 7.4)} / [log Ksel(Gd/Ca)] / [log Ksel(Gd/Cu)] / [log Ksel(Gd/Zn)]: 25° C., μ = 0.10M (KCl); for pGd: pM = −log[Mn+] free at pH 7.4, [Mn+] total = 1 μmol/dm3, [L] total = 1.1 μmol/dm3; for [log Ksel(Gd/Ca)]: selectivity constant Gd over Ca; for [log Ksel(Gd/Cu)]: selectivity constant Gd over Cu; for [log Ksel(Gd/Zn)]: selectivity constant Gd over Zn; for [GdL]/[Gd][L]: stability constant, log K (25° C., μ = 0.10M (KCl))
Description: (§1) The stability constant (KML) can be defined by the equation of KML=[ML]/[M][L], wherein M is Gd, Ca, Zn, Cu, and L indicates a ligand.
(§2) The pM value can be defined by the equation of pM=−log [Mn^+] at pH=7.4.
[M]=1.0 μmol/dm^3, [L]=1.1 μmol/dm^3

[2] = Stability constant and pM value for calcium; assay type: physicochemical; conditions: for {log KCaL(PH 7.4)}: 25° C., μ = 0.10M (KCl); for pCa: pM = −log[Mn+] free at pH 7.4, [Mn+] total = 1 μmol/dm3, [L] total = 1.1 μmol/dm3; for [CaL]/[Ca][L]: stability constant, log K (25° C., μ = 0.10M (KCl))
Description: as §1, §2
[M]=1.0 μmol/dm^3, [L]=1.1 μmol/dm^3

[3] = Stability constant and pM value for zinc; assay type: physicochemical; conditions: for {log KZnL(pH 7.4)}: 25° C., μ = 0.10M (KCl); for pZn: pM = −log[Mn+] free at pH 7.4, [Mn+] total = 1 μmol/dm3, [L] total = 1.1 μmol/dm3; for [ZnL]/[Zn][L]: stability constant, log K (25° C., μ = 0.10M (KCl))
Description: as §1, §2
[M]=1.0 μmol/dm^3, [L]=1.1 μmol/dm^3

[4] = Stability constant and pM value for copper; assay type: physicochemical; conditions: for {log KCuL(pH 7.4)}: 25° C., μ = 0.10M (KCl); for pCu: pM = −log[Mn+] free at pH 7.4, [Mn+] total = 1 μmol/dm3, [L] total = 1.1 μmol/dm3; for [CuL]/[Cu][L]: stability constant, log K (25° C., μ = 0.10M (KCl))
Description: as §1, §2
[M]=1.0 μmol/dm^3, [L]=1.1 μmol/dm^3

[5] = Measurement of protonation equilibrium constants (KiH) of the ligands; conditions: for [H2L]/[HL][H] / [H3L]/[H2L][H] / [H5L][H4L][H] / [HL]/[L][H]: protonation equilibrium constant, log K (25° C., μ = 0.10M (KCl)); for ΣpKa: 25° C., μ = 0.10M (KCl)
Description: The protonation equilibrium constant (KiH) can be defined by the equation of KiH═[HiL]/[Hi-1L][H^+], wherein HiL is a protonated ligand (i=1, 2, . . . ).

[6] = 20 MHz, 298 K; cited from earlier work
[7] = Measurement of self-relaxation rate (relaxivity) R1 at 1.5 T (64 MHz); assay type: physicochemical; conditions: inverse recovery method
Procedure: Thus, the self-relaxation rate is a factor that determines the efficiency of contrast agent in magnetic resonance imaging. T1 (relaxation time) measurements were carried out using an inverse recovery method with a variable […] (TI) at 1.5 T (64 MHz). The magnetic resonance (MR) images were acquired at 35 different T1 values ranging from 50 to 1750 msec. T1 was obtained from the non-linear least square fit of the signal intensity measured at each TI value. Relaxivity (R1) was then calculated as an inverse of relaxation time per mM.

| Structure (SMILES) | log K′sel [1] | {log KGdL(PH 7.4)} [1] | pGd [1] | [log Ksel(Gd/Ca)] [1] | [log Ksel(Gd/Cu)] [1] | [log Ksel(Gd/Zn)] [1] | [GdL]/[Gd][L] [1] | {log KCaL(PH 7.4)} [2] | pCa [2] | [CaL]/[Ca][L] [2] | {log KZnL(pH 7.4)} [3] | pZn [3] | [ZnL]/[Zn][L] [3] | {log KCuL(pH 7.4)} [4] | pCu [4] | [CuL]/[Cu][L] [4] | [H2L]/[HL][H] [5] | [H3L]/[H2L][H] [5] | [HL]/[L][H] [5] | R1 [7] | other results |
| --- | --- | --- | --- | --- | --- | --- | --- | --- | --- | --- | --- | --- | --- | --- | --- | --- | --- | --- | --- | --- | --- |
| O=C(O)CN(CCN(CC(=O)O)CC(=O)NC(Cc1cnc[nH]1)C(=O)O)CCN(CC(=O)O)CC(=O)NC(Cc1cnc[nH]1)C(=O)O (stereo not drawn) [Complex L1, DTPA-bis-amide-histidine] | 19.59 | 17.03 | 16.03 | 12.73 | 8.66 | 8.66 | 19.59 | 4.30 | 3.30 | 6.86 | 8.37 | 7.37 | 10.93 | 8.42 | 7.42 | 10.98 | 7.59 | 6.52 | 9.52 |  | [H5L][H4L][H] [5]: 3.82 |
| O=C(O)CC(NC(=O)CN(CCN(CCN(CC(=O)O)CC(=O)NC(CC(=O)O)C(=O)O)CC(=O)O)CC(=O)O)C(=O)O (stereo not drawn) [Complex L2, DTPA-bis-amide-aspartic acid] | 10.74 | 14.93 | 13.98 | 10.92 | 6.34 | 6.45 | 21.12 | 4.01 | 30.1 | 10.18 | 8.48 | 7.48 | 14.67 | 8.59 | 7.59 | 14.78 | 9.42 | 5.92 | 11.55 |  | ΣpKa [5]: 28.93; [H5L][H4L][H] [5]: 2.04 |
| CNC[C@H](O)[C@@H](O)[C@H](O)[C@H](O)CO.CNC[C@H](O)[C@@H](O)[C@H](O)[C@H](O)CO.O=C([O-])CN(CCN(CC(=O)[O-])CC(=O)O)CCN(CC(=O)[O-])CC(=O)O.[Gd+3] [Magnevist, (N-Me-glucamine)2[Gd(DTPA)(H2O)]] |  |  |  |  |  |  |  |  |  |  |  |  |  |  |  |  |  |  |  |  | self-relaxation rate [6]: approximately 4.7 mM^−1s^−1 |
| CNC(=O)CN(CCN(CCN(CC(=O)[O-])CC(=O)NC)CC(=O)[O-])CC(=O)[O-].[Gd+3] [Omniscan, [Gd(DTPA-bismethylamide)(H2O)], reference compound] | 9.03 | 14.84 | 13.88 | 9.68 | 3.82 | 4.81 | 16.85 | 5.11 | 4.19 | 7.17 | 10.02 | 9.06 | 12.04 | 11.06 | 10.05 | 13.03 | 4.38 | 3.31 | 9.37 | 3.3 ± 0.03 mM⁻¹ s⁻¹ | self-relaxation rate [6]: 4400 M⁻¹ s⁻¹; ΣpKa [5]: 17.06 |
| O.O=C([O-])CN(CCN(CC(=O)[O-])CC(=O)NC(Cc1cnc[nH]1)C(=O)O)CCN(CC(=O)[O-])CC(=O)NC(Cc1cnc[nH]1)C(=O)O.[Gd+3] (stereo not drawn) [[Gd(L1)H2O]] |  |  |  |  |  |  |  |  |  |  |  |  |  |  |  |  |  |  |  | 5.9 ± 0.03 mM⁻¹ s⁻¹ |  |
| O.O=C([O-])CN(CCN(CC(=O)[O-])CC(=O)NC(CC(=O)O)C(=O)O)CCN(CC(=O)[O-])CC(=O)NC(CC(=O)O)C(=O)O.[Gd+3] (stereo not drawn) [[Gd(L2)H2O]] |  |  |  |  |  |  |  |  |  |  |  |  |  |  |  |  |  |  |  | 6.9 ± 0.04 mM⁻¹ s⁻¹ |  |
